What was measured:
PKCθ = biological target: T1, PKCθ (Homo sapiens, UniProt Q04759); assay: In vitro enzyme assay (time-resolved fluorescence kinase assay), PKCθ, 100 μM ATP; type: biochemical
T1 construct: His6; purchased Millipore; host or cells: baculovirus in Sf21 cells
Summary of the method: (§1)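 Read-out was time-resolved fluorescence, corrected for a minus-enzyme blank and converted to percent activity relative to enzyme without drug. They were stopped with EDTA.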

[1] = test system: CD3/CD28 induced IL-2 in human T-Blasts; assay: T-Blasts CD3/CD28 induced IL-2 assay; type: cell-based; settings: read-out: CD3/CD28-stimulated IL2 in T-blasts EC50
Summary of the method: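 PHA-generated human T-blasts, 2×10^5 per well, preincubated 30 min with 8-point 1/3 compound dilutions in duplicate, then stimulated with anti-CD3+anti-CD28 (5 μg/mL final) for 24 h at 37° C. Supernatant IL-2 measured; MTT toxicity run on remaining cells.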

PKCα = biological target: T2, PKCα (Homo sapiens, UniProt P17252); assay: In vitro enzyme assay (time-resolved fluorescence kinase assay), PKCα, 100 μM ATP; type: biochemical; settings: 100 μM ATP; read-out: PKCα enzyme IC50
T2 construct: His6; purchased Millipore; host or cells: baculovirus in Sf21 cells
Summary of the method: as §1

T1 sequence (Q04759 whole entry): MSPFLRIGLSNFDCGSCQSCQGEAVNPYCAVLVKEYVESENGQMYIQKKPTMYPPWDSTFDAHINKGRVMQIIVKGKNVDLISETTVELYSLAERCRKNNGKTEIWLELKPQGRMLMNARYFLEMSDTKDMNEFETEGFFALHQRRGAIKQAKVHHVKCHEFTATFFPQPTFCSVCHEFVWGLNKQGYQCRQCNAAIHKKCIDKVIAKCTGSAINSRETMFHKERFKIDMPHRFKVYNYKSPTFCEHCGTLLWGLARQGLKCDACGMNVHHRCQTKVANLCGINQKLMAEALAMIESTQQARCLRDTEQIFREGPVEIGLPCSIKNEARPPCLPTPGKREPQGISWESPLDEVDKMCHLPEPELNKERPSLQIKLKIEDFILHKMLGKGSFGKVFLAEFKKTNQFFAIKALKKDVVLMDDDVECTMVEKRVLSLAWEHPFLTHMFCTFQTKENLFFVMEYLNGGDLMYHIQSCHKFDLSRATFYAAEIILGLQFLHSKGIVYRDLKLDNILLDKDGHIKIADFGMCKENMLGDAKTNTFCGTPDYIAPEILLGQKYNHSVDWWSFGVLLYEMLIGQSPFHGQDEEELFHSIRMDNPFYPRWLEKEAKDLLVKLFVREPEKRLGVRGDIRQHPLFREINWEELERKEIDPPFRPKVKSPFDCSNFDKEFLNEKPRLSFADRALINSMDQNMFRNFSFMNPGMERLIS

Structure (SMILES) | IC50 (PKCθ) [µM] | EC50 [1] [µM] | IC50 (PKCα) [µM]
C[C@@H]1C(=O)NN=C2COc3cc(-c4ccccc4CO)c(N(C)C4(C)CN(CCO)C4)cc3N21 [Example 195] | < 0.25 | < 0.25 | 1 to 10
CC1C(=O)NN=C2COc3cc(-c4ccccc4)c(N(C)C4(C)CN(C5COC5)C4)cc3N21 (stereo not drawn) [Example 196] | < 0.25 | 1 to 10 | 1 to 10
CC(C)c1cc2c(cc1[C@@H]1CCNC[C@@H]1C)N1C(=NNC(=O)[C@H]1C)CO2 [Example 202] | < 0.25 | < 0.25 | 1 to 10
C[C@@H]1CNCC[C@@H]1c1cc2c(cc1-c1ccccc1CO)OCC1=NNC(=O)[C@@H](C)N12 [Example 204] | < 0.25 | 0.25 to 1 | 1 to 10
C[C@@H]1CN(C)CC[C@@H]1c1cc2c(cc1-c1ccccc1CO)OCC1=NNC(=O)[C@@H](C)N12 [Example 205] | < 0.25 | < 0.25 | 0.25 to 1
C[C@@H]1C(=O)NN=C2COc3cc(-c4ccccc4F)c([C@@H]4CCN(CCO)C[C@@H]4C)cc3N21 [Example 206] | < 0.25 | < 0.25 | 1 to 10
C[C@@H]1CN(CCO)CC[C@@H]1c1cc2c(cc1-c1ccccc1F)OCC1=NNC(=O)[C@@H](C)N12 [Example 207] | < 0.25 | 0.25 to 1 | 1 to 10
CC(C)c1cc2c(cc1C1CCNCC1)N1C(=NNC(=O)[C@H]1C)CO2 [Example 208] | < 0.25 | < 0.25 | 1 to 10
C[C@@H]1C(=O)NN=C2COc3cc(-c4ccccc4Cl)c(C4CCNCC4)cc3N21 [Example 210] | < 0.25 | < 0.25 | 1 to 10
C[C@@H]1C(=O)NN=C2COc3cc(C4=CCC(F)(F)CC4)c(C4CCNCC4)cc3N21 [Example 211] | < 0.25 | 0.25 to 1 | 1 to 10
C[C@@H]1C(=O)NN=C2COc3cc(-c4c(F)cccc4F)c(C4CCNCC4)cc3N21 [Example 213] | < 0.25 | < 0.25 | 1 to 10
C[C@@H]1C(=O)NN=C2COc3cc(-c4ccccc4F)c([C@H]4CCNC4)cc3N21 [Example 214] | < 0.25 | < 0.25 | 1 to 10
C[C@@H]1C(=O)NN=C2COc3cc(-c4ccccc4F)c([C@@H]4CCNC4)cc3N21 [Example 215] | < 0.25 | < 0.25 | 1 to 10
C[C@@H]1C(=O)NN=C2COc3cc(-c4ccccc4F)c([C@H]4CCCNC4)cc3N21 [Example 216] | < 0.25 | 0.25 to 1 | 1 to 10
C[C@@H]1C(=O)NN=C2COc3cc(-c4ccccc4F)c([C@H]4CCCNCC4)cc3N21 [Example 217] | < 0.25 | 0.25 to 1 | 1 to 10
C[C@@H]1C(=O)NN=C2COc3cc(-c4ccccc4F)c([C@@H]4CCCNCC4)cc3N21 [Example 218] | < 0.25 | 0.25 to 1 | 1 to 10
CC(C)c1cc2c(cc1C1CCN(C)CC1)N1C(=NNC(=O)[C@H]1C)CO2 [Example 219] | < 0.25 | < 0.25 | 1 to 10
C[C@@H]1C(=O)NN=C2COc3cc(-c4ccccc4F)c(N4CCNCC4)cc3N21 [Example 222, (R)-7-(2-Fluoro-phenyl)-4-methyl-6-piperazin-1-yl-2,10-dihydro-9-oxa-1,2,4a-triaza-phenanthren-3-one] | < 0.25 | 0.25 to 1 | 1 to 10

Structure (SMILES) | IC50 (PKCθ) [µM] | EC50 [1] [µM] | IC50 (PKCα) [µM]
C[C@@H]1CNCCN1c1cc2c(cc1-c1ccccc1F)OCC1=NNC(=O)[C@@H](C)N12 [Example 223] | < 0.25 | < 0.25 | 0.25 to 1
C[C@@H]1C(=O)NN=C2COc3cc(-c4ccccc4F)c(N4CCNC[C@@H]4C)cc3N21 [Example 224] | < 0.25 | < 0.25 | 0.25 to 1
C[C@@H]1C(=O)NN=C2COc3cc(-c4ccccc4F)c(N4CCN[C@@H](C)C4)cc3N21 [Example 225] | < 0.25 | < 0.25 | 0.25 to 1
CC[C@@H]1CNCCN1c1cc2c(cc1-c1ccccc1F)OCC1=NNC(=O)[C@@H](C)N12 [Example 226] | < 0.25 | 0.25 to 1 | 0.25 to 1
CC[C@H]1CNCCN1c1cc2c(cc1-c1ccccc1F)OCC1=NNC(=O)[C@@H](C)N12 [Example 227] | < 0.25 | 0.25 to 1 | 1 to 10
C[C@@H]1C(=O)NN=C2COc3cc(-c4ccccc4F)c(N4[C@@H]5CC[C@H]4CNC5)cc3N21 [Example 228] | < 0.25 | 0.25 to 1 | 0.25 to 1
C[C@@H]1CN(C)CCN1c1cc2c(cc1-c1ccccc1F)OCC1=NNC(=O)[C@@H](C)N12 [Example 230] | < 0.25 | < 0.25 | 0.25 to 1
C[C@@H]1C(=O)NN=C2COc3cc(-c4ccccc4F)c(N4CCN(C)C[C@@H]4C)cc3N21 [Example 231] | < 0.25 | < 0.25 | 0.25 to 1
C[C@@H]1C(=O)NN=C2COc3cc(-c4ccccc4F)c(N4CCN(C)[C@@H](C)C4)cc3N21 [Example 232] | < 0.25 | < 0.25 | 0.25 to 1
CC[C@@H]1CN(C)CCN1c1cc2c(cc1-c1ccccc1F)OCC1=NNC(=O)[C@@H](C)N12 [Example 233] | < 0.25 | < 0.25 | 0.25 to 1
CC[C@H]1CN(C)CCN1c1cc2c(cc1-c1ccccc1F)OCC1=NNC(=O)[C@@H](C)N12 [Example 234] | < 0.25 | 0.25 to 1 | 1 to 10
C[C@@H]1C(=O)NN=C2COc3cc(-c4ccccc4F)c(N4[C@@H]5CC[C@H]4CN(C)C5)cc3N21 [Example 235] | < 0.25 | 0.25 to 1 | 0.25 to 1
CC1C(=O)NN=C2COc3cc(-c4ccccc4F)c(N4CC5CCC4CN5C)cc3N21 (stereo not drawn) [Example 236] | < 0.25 | 1 to 10 | 1 to 10
C[C@@H]1C(=O)NN=C2COc3cc(-c4ccc(F)cc4F)c([C@@H]4CCN(C)C[C@@H]4C)cc3N21 [Example 238] | < 0.25 | < 0.25 | < 0.25
CC(C)c1cc2c(cc1[C@@H]1CCN(C)C[C@@H]1C)N1C(=NNC(=O)[C@H]1C)CO2 [Example 244] | < 0.25 | < 0.25 | 0.25 to 1
C[C@@H]1CN(C)[C@@H](C)CN1c1cc2c(cc1-c1ccccc1F)OCC1=NNC(=O)[C@@H](C)N12 [Example 246, (R)-7-(2-Fluoro-phenyl)-4-methyl-6-((2R,5S)-2,4,5-trimethyl-piperazin-1-yl)-2,10-dihydro-9-oxa-1,2,4a-triaza-phenanthren-3-one] | < 0.25 | < 0.25 | 0.25 to 1
C[C@@H]1C(=O)NN=C2COc3cc(-c4ccccc4F)c(N4C[C@H](C)N(C)C[C@@H]4C)cc3N21 [Example 247] | < 0.25 | < 0.25 | < 0.25
CC1C(=O)NN=C2COc3cc4ccn(C5CN(C)C5)c4cc3N21 (stereo not drawn) [compound 161] | < 0.25 | 0.25 to 1 | 1 to 10

From patent US9115151B2, “Substituted 2,10-dihydro-9-oxa-1,2,4A-triazaphenanthren-3-ones and uses thereof” (AbbVie Inc., priority 2012, dated 2015)
